Data set [1] deals with H2B::mCherry; γ-tubulin::GFP transgenic worms. The following applies: OD57 (pie-1::mCherry::H2B; pie-1::GFP::gamma tubulin), C. elegans, in vivo. On the procedure:
60 first mitosis in ethanol and BPA exposed H2B::mCherry; γ-tubulin::GFP transgenic worms were captured by live imaging. While normal pronuclear fusion and chromosomal alignment and segregation in ethanol controls was observed, the first division of BPA exposed embryos was highly abnormal. […] In some instances, multiple spindle poles were apparent.
Live Imaging. For live imaging, a pie-1::mCherry::H2B; pie-1::GFP::gamma tubulin OD57 strain was used. The strain was incubated at 25° C. 24 hours prior to imaging. Images were captured using the Leica-Deltavision system described above. Worms were immobilized on an agarose pad by sectioning of the head and images of the first cell division were captured at a rate of one image every 10 seconds for 5 minutes.

Data set [2] relates to C. elegans germline. The settings on record: in vivo, 4 days, 1 mM. The source says: (§1) Synapsis and recombination are tightly linked events during pachytene throughout various species, as it is only in the context of a fully assembled SC that crossover recombination can be completed. Indeed, in C. elegans, null mutants of SC components such as syp-1, syp-2, syp-3, syp-4 and him-3, increased levels of RAD-51 foci formation and delayed kinetics of foci turnover are observed during pachytene. Consequently, there is activation of the DNA damage checkpoint leading to increased germ cell apoptosis. Recombination is an essential and highly regulated process for the exchange of information that takes place during prophase I [18]. As nuclei exit mitosis and progress through meiosis, programmed meiotic DNA double strand breaks (DSBs) are formed and processed by several DNA repair proteins including RAD-51 [25, 48]. RAD-51 levels vary greatly during progression through prophase I as it is loaded onto DNA during the process of strand invasion and is removed as DSBs repair progresses. […] As unrepaired recombination intermediates can trigger a DNA-damage checkpoint during pachytene leading to increased germ cell apoptosis, the number of apoptotic nuclei following BPA exposure was measured by Syto-12 staining. […]
Rad-51 Time Course Analysis. The number of RAD-51 foci and their kinetics throughout the seven zones was assessed as described in [25]. […]

Data set [3] deals with C. elegans germline. The settings on record: in vivo.
Source text: as §1, with “48].” for “48]. RAD-51 levels vary greatly during progression through prophase I as it is loaded onto DNA during the process of strand invasion and is removed as DSBs repair progresses.”
Quantification of Germ Cell Apoptosis. Apoptotic germline nuclei were scored in young adults between 20 and 24 hours post-L4 using SYTO-12 (Invitrogen) and were processed as described in [26]. […] Both GFP positive and negative worms (heterozygous and homozygous for cep-1 respectively) were analyzed following BPA exposure. […]

For data set [4], the system named is C. elegans germline. Description: Synaptonemal complex and chromatin integrity in transition zone and pachytene (HTP-3, SYP-1, HIM-8, DAPI). Type of data set: in vivo. From the text: To examine meiotic chromosome synapsis in C. elegans following BPA exposure, assembly of the synaptonemal complex was examined by assessing the localization of the axial element protein HTP-3 (a paralogue of the axial component HIM-3 required for proper synapsis and pairing of homologous chromosomes) and the central region protein SYP-1 [45], as the nuclei enter meiosis. As nuclei exit mitosis and progress into meiosis in wild type germlines, HTP-3 and SYP-1 are assembled onto the chromatin as foci and short tracks which increase in length through the transition zone. By pachytene, the polymerization of the SC is completed and both proteins form fully elongated tracks spanning the entire length of the homologous chromosomes. Following exposure to BPA, the kinetics and extent of assembly of HTP-3 and SYP-1 onto the chromatin during transition zone were not affected when compared to control (n=10 gonads).
These abnormal nuclei were not simply apoptotic nuclei as they were not specifically found near the bend of the gonad, where germline nuclei were cleared by apoptosis but instead could be found throughout pachytene. As disruption of the integrity of the SC could lead to a separation of the homologous chromosomes, the localization of the X specific pairing center component HIM-8 was examined. In C. elegans, specific loci, termed pairing centers, on chromosomes allow for the physical interaction between homologous pairs. HIM-8 along with other pairing center components associate with the pairing centers and the nuclear envelope and mediate homologous pairing.

For data set [5], the system named is C. elegans germline. Description: Size of mitotic zone of the germline (DAPI, phospho-histone H3 staining). The following applies: in vivo. The source says: In C. elegans, the germline is comprised of two main compartments, a mitotic region (the premeiotic tip), where nuclei are under the influence of the distal tip cell that maintains them in a proliferative state; and the meiotic region, where nuclei progress through the stages of Prophase I before being fertilized. The mitotic compartment of the worm gonad following BPA exposure was examined.
BPA bears endocrine disrupting activity in many developmental contexts including gonadal, brain and mammary gland development. BPA has affinity for multiple members of the estrogen receptors family, in particular BPA binds to the human estrogen receptor alpha (ERα) and ERβ as well as estrogen-related receptor gamma (ERR-γ) and in C. elegans with nuclear hormone receptor NHR-14 which also binds estrogen. […] Two hallmarks of exposure to BPA were examined, the decrease in the size of the proliferative zone and the condensation defects observed at diakinesis, as they are both highly penetrant and consistent phenotypes. […] Similarly to the experiments described above, the size of the mitotic zone was quantified as well as condensation defects at diakinesis.
Growing Conditions and Drug Exposures. Worms were cultured according to [23] at 20° C. on NGM plates without cholesterol. […] Exposure was carried from embryogenesis to adulthood by plating sodium hypochloride treated eggs onto drug and control plates and incubated at 20° C. for four days.
Antibody Staining. DAN staining, immunostaining and analysis of stained meiotic nuclei were performed as in [25] except for ATL-1 and AIR-2 antibodies were dissected gonads were subjected to a 1% fixation method as described in [27]. […] The secondary antibodies used were: Cy3 anti-rabbit, FITC anti-guinea-pig and FITC anti-mouse (Jackson Immunochemicals), each at 1:100, Stacks of 0.2 μm slices were captured using a Leica microscope, coupled to the DeltaVision fluorescence microscope system (Applied Precision). […]

Consider `CC(C)(c1ccc(O)cc1)c1ccc(O)cc1` [BPA, Bisphenol A], for which the “one-cell embryos failing to align on the metaphase plate and/or segregate properly” value in data set [1] is on record as 9/60. Also, the “RAD-51 foci in late pachytene (zones 6 and 7)” value in the data set with C. elegans germline [2] is “elevated number of RAD-51 foci”. For the same compound, in the data set on C. elegans germline [3], the “apoptotic levels in a cep-1 mutant background” value was “reduced to normal levels” and the “number of apoptotic nuclei compared to vehicle” value is “two to three-fold increase”. Also, in the data set with C. elegans germline [4] (BPA exposure), the “pachytene nuclei with DAPI stained bodies or fragments” value is given as “about 10%”. The “kinetics and extent of assembly of HTP-3 and SYP-1 onto chromatin during transition zone” value in the data set on C. elegans germline [4] (BPA exposure vs control) was “not affected”. Further, in the data set with C. elegans germline [4] (BPA treated worms), the “HIM-8 foci per nucleus throughout pachytene” value is listed as 1 focus per nucleus and the “chromosome synapsis in pachytene nuclei (SYP-1 staining)” value is “defects in chromosome synapsis”. Moreover, the “size of the premeiotic tip a day later” value in the data set with C. elegans germline [5] is “No significant increase”.

The record behind these values is patent publication US20120028837A1, “RAPID SCREEN FOR REPRODUCTIVE TOXICANTS” (PRESIDENT AND FELLOWS OF HARVARD COLLEGE, priority 2010, published 2012).
